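These data come from cells grown in 96-well plates and exposed to compound for 48 hours at five concentrations. TGI: total growth inhibition.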
Legend:
Assay in all cases: inhibition of tumour cell growth, NCI panel, 48 h
A549 NSCLC = system: A549 NSCLC
IGROV1 ovarian = system: IGROV1 ovarian
OVCAR-4 ovarian = system: OVCAR-4 ovarian
HS 578T breast = system: HS 578T breast
LOX IMVI melanoma = system: LOX IMVI melanoma
SNB-19 CNS = system: SNB-19 CNS
HT29 colon = system: HT29 colon
MDA-N = system: MDA-N
TK-10 renal = system: TK-10 renal
MOLT-4 leukemia = system: MOLT-4 leukemia
786-0 renal = system: 786-0 renal

SMILES	TGI (A549 NSCLC) [µM]	TGI (IGROV1 ovarian) [µM]	TGI (OVCAR-4 ovarian) [µM]	TGI (HS 578T breast) [µM]	TGI (LOX IMVI melanoma) [µM]	TGI (SNB-19 CNS) [µM]	TGI (HT29 colon) [µM]	TGI (MDA-N) [µM]	TGI (TK-10 renal) [µM]	TGI (MOLT-4 leukemia) [µM]	TGI (786-0 renal) [µM]
COc1ccc(Cl)cc1NC(=O)O/N=C(\Cl)C(C)C	37.9	27.1	34.1	69.2	5.06	> 61.7	43.8	26.2	6.93	6.11	27.1
COC(=O)c1sc2c(c1C(=O)OC)C(=Nc1ccc(OC)cc1)SC2=Nc1ccc(OC)cc1	2.68	2.24	2.83	–	0.449	2.88	1.73	2.52	3.01	0.494	1.33
N#CC1=C(N)OC2=C(CCCc3ccc([N+](=O)[O-])cc32)C1c1ccc(Cl)cc1 (stereo unspecified)	> 100	> 100	28.3	88.8	44.5	> 100	> 100	39.6	> 100	93.1	23.9
O=C1c2cccc3cc([N+](=O)[O-])cc(c23)C(=O)N1c1ccc(OCCN2CCCC2)cc1	20.6	41.9	67.2	> 100	34.6	80.2	28.3	80.3	81.3	56.7	33.4
COC(=O)C(=O)C(C(=O)C(=O)Nc1cc(C)ccc1C)c1nc2ccccc2[nH]c1=O (stereo unspecified)	> 100	> 100	> 100	> 100	> 100	> 100	> 100	> 100	> 100	> 100	> 100
Clc1ccc(Cc2nc3cc(Cl)c(Cl)cc3n2CC2CCCN3CCCCC23)cc1 (stereo unspecified)	26.2	21	79.4	26.5	19.4	27.1	13.1	24.2	27.7	> 100	23.5
CC(=O)N(C(=O)CC(=O)N1N=C(C)C(N=Nc2cccc([N+](=O)[O-])c2)C1=O)c1ccc(Cl)cc1 (stereo unspecified)	> 10	> 10	> 10	> 10	> 10	> 10	> 10	> 10	> 10	–	> 10
COC(=O)[C@@H]1CN(C(=O)Cc2ccccc2)C(=O)N1	> 100	> 100	> 100	> 100	> 100	> 100	> 100	–	> 100	> 100	> 100
CC1(C)OCC(/C=C\C(O)CC2(C)OCCO2)CO1 (stereo unspecified)	> 100	> 100	> 100	> 100	> 100	> 100	> 100	> 100	> 100	> 100	> 100
CCOC(=O)c1cccc(N=NNc2cccc(C(=O)OCC)c2)c1	> 100	> 100	63	77.3	> 100	46.2	> 100	> 100	> 100	> 100	42.6
COc1ccc(/C=C(\C#N)c2ccccn2)cc1OC	> 100	> 100	> 100	–	–	> 100	> 100	> 100	> 100	> 100	> 100
CCOC(=O)c1c(N2CCN(C)CC2)[nH]c(=O)c(C(c2c(Cl)cccc2Cl)c2c(O)c(C(=O)OCC)c(N3CCN(C)CC3)[nH]c2=O)c1O	71.4	39.2	38.4	75	> 100	37.2	39.1	–	55.4	62.2	87
O=C(NCC(O)COc1ccccc1)c1ccccc1O (stereo unspecified)	> 100	> 100	> 100	–	> 100	> 100	–	> 100	> 100	47.2	> 100
CNC(=O)OC1/C(C)=C\C(C)C(O)C(OC)CC(C)CC2=C(OC)C(=O)C=C(C2=O)N(C)C(=O)/C(C)=C/C=C\C1OC (stereo unspecified)	43.7	24.6	22	15.3	16.6	> 75.8	17	10.7	22	3.74	18.2
CC(C)=CC(=O)c1[nH]c2ccccc2c1CC(=O)NCCc1cnc[nH]1	> 100	> 100	> 100	> 100	> 100	> 100	> 100	> 100	> 100	> 100	> 100
COc1cccc(C2c3cc4c(cc3OC(NNS(=O)(=O)c3ccc(C)cc3)C2C)OCO4)c1O (stereo unspecified)	> 100	> 100	–	41.6	> 100	> 100	47.1	80.1	95.2	52.1	> 100
O=C1N[C@@H]([C@H]2CC[C@H](Cl)CN2)C(=O)N[C@H]1[C@H]1CC[C@H](Cl)CN1	76.5	37.6	8.78	91.7	2.6	104	32.1	4.98	36.6	13.3	0.61
Cc1ccc2c(c1)CC1(Cc3cc(C)ccc3C1=O)C2=O	> 100	> 100	> 100	> 100	> 100	> 100	> 100	> 100	> 100	> 100	> 100
O=c1[nH]nc(-c2cccc([N+](=O)[O-])c2)[nH]1	> 100	> 100	> 100	> 100	> 100	> 100	> 100	> 100	> 100	> 100	> 100
CCOc1c2c(cc3c1C(=O)c1c(OC)cccc1C3=O)C=C(OC)CC2	> 25	> 25	> 25	> 25	> 25	> 25	> 25	19.9	> 25	> 25	> 25
